Entries after “also recorded” stand apart in the source; their conditions may differ.

One experiment deals with human NAMPT enzyme (Homo sapiens (Human), UniProt P43490). The experiment is described as follows: NAMPT enzyme activating effect (in vitro cell-free enzyme assay). In kind it is biochemical. The note with it: 2 ng/mL human NAMPT enzyme, 1-h incubation at 25° C., fluorescence of NMN derivative. Here is the method: The NAMPT enzyme assay was conducted in accordance with the method of Formentini et al. […] Hereinafter, the procedures will be briefly described. The NAMPT enzyme reaction was carried out using polypropylene 384 well V shaped black plate (Greiner Bio One International GmbH). […] Then, 22 μL of 88% formic acid was added and the mixture was further incubated for 30 min in the dark. The NAMPT enzyme activity was calculated as the difference between fluorescence intensity (Ex 380 nm/Em 450 nm) from the reaction of a test compound treatment group and fluorescence intensity from control reaction free from the NAMPT enzyme. [NAMPT enzyme activity]=[Fluorescence intensity of the test substance treatment group]−[Mean fluorescence intensity of the control reaction free from the NAMPT enzyme] EC50 value of each compound was calculated from the enzyme activities of the compound at various concentrations by using GraphPad Prism software (GraphPad Software) (Table 1)

A further experiment has as its system HEK293A cells. In words: Effect of NAMPT activator on the intracellular NAD+ level (in vitro cell-based assay). The note with it: HEK293-A, 3 h culture with compound, NAD+/NADH-Glo assay, read-out: EC50 (intracellular NAD+ content). Here is the method: HEK293A cells were cultured in Dulbecco's Modified Eagle Medium (DMEM (high glucose)) containing 10% fetal bovine serum (FBS), non-essential amino acid (NEAA), and antibiotic-antimycotic [reaction medium]. On the day before the test, HEK293A cells were inoculated at a ratio of 3.0×10^4 cells/80 μL to 96 well poly-D-lysine coated plate and cultured overnight in a CO2 incubator.
On the day of the test, each test compound diluted with reaction medium to a concentration of 5 times the final concentration was added at a ratio of 20 μL/well, and the cells were further cultured for 3 h. After removal of the medium, the cells were lysed in 50 μL/well of Bicarbonate Base Buffer (100 mM sodium carbonate, 20 mM sodium bicarbonate, 100 mM nicotinamide, 20 mM Triton X-100) containing 1% dodecyl trimethyl-ammonium bromide (DTAB). The NAD^+ content in the cell extract was measured using NAD^+/NADH-Glo assay kit according to the manufacturer's instructions. Hereinafter, the procedures will be briefly described. 20 μL of the lysate was separated, and 10 μL of 0.4 N HCL was added thereto, followed by incubation at 60° C. for 15 min and subsequently at 25° C. for 10 min. The mixture was neutralized by the addition of 10 μL of 0.5 M Trizma base solution and then diluted 10-fold with distilled water. 15 μL of the diluted sample was mixed with an equal amount (15 μL) of NAD^+/NADH-Glo reagent in 384 well black plate, and the mixture was incubated for 30 min in the dark. Then, chemiluminescence intensity was measured.
EC50 value of each compound was calculated from the calculated values of the compound at various concentrations using GraphPad Prism software (Table 2).

For experiment [1], the system named is C57BL/6N mice. The experiment is described as follows: Tissue NAD+ level in normal mice. The class given is in vivo, mouse. The note with it: normal C57BL/6N mice, 30 or 100 mg/kg orally, 24 h after administration, LC/MS. Here is the method:
(§1) 24 h after the administration, each mouse was sacrificed by exsanguination. The liver, gastrocnemius, soleus, and brown adipose tissues were harvested. Each tissue was homogenized with a 10- or 100-fold amount of 2 M perchloric acid per its weight. Then, the samples were centrifuged and the supernatant was neutralized with 5 M […]. After removal of potassium perchlorate, the NAD^+ concentration in the supernatant of sample was measured using LC/MS.

The test system of experiment [2] is C57BL/6N DIO mice. The experiment is described as follows: Tissue NAD+ level in diet-induced obese (DIO) mice. Particulars: 30 or 100 mg/kg orally, 24 h after administration, LC/MS. The class given is in vivo, mouse. Here is the method:
as §1

The subject of experiment [3] is C57BL/6N DIO mice. The experiment is described as follows: Energy expenditure in DIO mouse (oxygen consumption). The note with it: 100 mg/kg orally once a day, vs vehicle group. In kind it is in vivo. Here is the method: 48-week-old male C57BL/6N DIO mice were divided into 2 groups each involving 4 mice. Each mouse was acclimatized for 3 d under individual housing and then fasted overnight. […] Oxygen consumptions (VO2) and carbon dioxide outputs (VCO2) were measured for approximately 73 h (approximately 9 h under fasting (on the order of 9:00 to 18:00) and approximately 64 h under feeding (on the order of 18:00 to 10:00 of two days later)) using Comprehensive Lab Animal Monitoring System (Columbus Instruments International Corp.).

Experiment [4] relates to C57BL/6N DIO mice. The experiment is described as follows: Anti-obesity effect (DIO mouse, free feeding). Particulars: DIO mice freely fed high-fat diet, 30 mg/kg orally once a day for 3 wk, vs vehicle group. The class given is in vivo. From the text:
45-week-old male C57BL/6N DIO mice were each acclimatized for 1 wk under individual housing. Then, the mice were divided into 2 groups each involving 6 mice with their weights, amounts of weight change, and food intakes during the acclimatization period as indexes. Each mouse was freely fed a purified high-fat diet (D12451) for 3 wk under individual rearing. […] The weight was compared between the test groups.

Experiment [5] concerns C57BL/6N DIO mice. The experiment is described as follows: Tissue NAD+ level in DIO mouse - 2 (major tissues). In kind it is in vivo. Particulars: 30 mg/kg orally, 24 h after administration, LC/MS. Here is the method: 24 h after the administration, each mouse was sacrificed by exanguination. The heart, kidney, spleen, lung, and white adipose tissues were harvested. For a control, the same organs as above were harvested from 8-week-old male C57BL/6N mice. Each tissue was homogenized with a 10- or 100-fold amount of 2 M perchloric acid per its weight. Then, the samples were centrifuged and the supernatant was neutralized with 5 M […]. After removal of potassium perchlorate, the NAD^+ concentration in the supernatant of sample was measured using LC/MS.

Experiment [6] has as its system C57BL/6N mice. In words: NAD+ level in retina (normal mouse). The class given is in vivo. Particulars: normal C57BL/6N mice, 30 mg/kg orally, 4 h after administration, LC/MS. Here is the method:
4 h after the administration, each mouse was sacrificed by exanguination. The retina was harvested from both eyes. The retina (4 eye pools per sample) was homogenized with a 100-fold amount of 2 M perchloric acid per retinal tissue weight. Then, the samples were centrifuged and the supernatant was neutralized with 5 M […]. After removal of potassium perchlorate, the NAD^+ concentration in the supernatant sample was measured using LC/MS.

A further experiment deals with WKY rats. Particulars: 5 mg/kg intraperitoneally 0.5 h before Main FST, vs vehicle control.

Sequence of human NAMPT enzyme (P43490 whole entry): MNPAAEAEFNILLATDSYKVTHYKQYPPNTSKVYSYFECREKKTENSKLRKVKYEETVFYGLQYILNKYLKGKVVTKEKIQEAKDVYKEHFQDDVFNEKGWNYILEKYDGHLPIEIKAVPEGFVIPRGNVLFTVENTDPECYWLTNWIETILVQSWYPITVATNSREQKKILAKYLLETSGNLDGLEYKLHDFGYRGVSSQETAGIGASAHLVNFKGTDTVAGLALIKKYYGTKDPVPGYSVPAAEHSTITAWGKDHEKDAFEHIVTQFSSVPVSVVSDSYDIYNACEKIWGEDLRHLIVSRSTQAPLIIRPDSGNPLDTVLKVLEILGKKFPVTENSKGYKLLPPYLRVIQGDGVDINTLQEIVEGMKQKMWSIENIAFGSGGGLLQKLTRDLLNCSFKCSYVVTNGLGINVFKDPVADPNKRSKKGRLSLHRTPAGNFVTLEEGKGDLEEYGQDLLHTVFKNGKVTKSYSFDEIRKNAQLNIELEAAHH

For the compound `Cc1ccccc1-c1nc2ccc(NC(=O)NCc3ccncc3)cc2o1` [Example 1, N-[2-(2-Methylphenyl)-1,3-benzoxazol-6-yl]-N′-[(pyridin-4-yl)methyl]urea], the 50% effective concentration (EC50) on human NAMPT enzyme worked out at 110 nM; with HEK293A cells, 430 nM.

On to `O=C(NCc1ccncc1)Nc1ccc2nc(-c3ccccc3)oc2c1` [Example 2, N-(2-Phenyl-1,3-benzoxazol-6-yl)-N′-[(pyridin-4-yl)methyl]urea], for which the concentration giving a half-maximal response (EC50) came out at 50 nM at human NAMPT enzyme and 190 nM in the experiment with HEK293A cells. The “NAD+ levels in liver, gastrocnemius, soleus, and brown adipose tissues” value with C57BL/6N mice [1] and with C57BL/6N DIO mice [2] was “increases NAD^+ levels” in each case. Further, the “oxygen consumption (VO2) per weight” value in the experiment with C57BL/6N DIO mice [3] is “increased an oxygen consumption per weight; also recorded: increases oxygen consumption”. In addition, the body weight change entry with C57BL/6N DIO mice [4] is on record as “weight lowering effect; also recorded: decreases body weights”. In the experiment on C57BL/6N DIO mice [5], the “NAD+ levels in major tissues (heart, kidney, spleen, lung, white adipose tissue)” value is on record as “NAD^+ levels were increased; also recorded: increases NAD^+ levels”. Also, in the experiment on C57BL/6N mice [6], the “NAD+ levels in retina” value is reported as “NAD^+ levels were increased; also recorded: increases NAD^+ levels”.

With `O=C(NCc1ccncc1)Nc1ccc2oc(-c3ccccc3)nc2c1` [Example 7, N-(2-Phenyl-1,3-benzoxazol-5-yl)-N′-[(pyridin-4-yl)methyl]urea], the EC50 at human NAMPT enzyme turned out to be 410 nM; in the experiment on HEK293A cells it was 540 nM.

In the case of `O=C(NCc1ccncc1)Nc1ccc2nc(-c3ccccc3)nn2c1` [Example 8, N-(2-Phenyl[1,2,4]triazolo[1,5-a]pyridin-6-yl)-N′-[(pyridin-4-yl)methyl]urea], the figures for the half-maximal effective concentration (EC50) on human NAMPT enzyme and with HEK293A cells were 80 nM and 210 nM, respectively.

Regarding `N#Cc1c2ccc(NC(=O)NCc3ccncc3)cc2nn1-c1ccccc1` [Example 21, N-(3-Cyano-2-phenyl-2H-indazol-6-yl)-N′-[(pyridin-4-yl)methyl]urea], the concentration giving a half-maximal response (EC50) is 110 nM at human NAMPT enzyme and 230 nM in the experiment on HEK293A cells.

Take `Cn1nccc1-c1c(-c2ccccc2)nn2cc(NC(=O)NCc3ccncc3)ccc12` [Example 22, N-[3-(1-Methyl-1H-pyrazol-5-yl)-2-phenylpyrazolo[1,5-a]pyridin-6-yl]-N′-[(pyridin-4-yl)methyl]urea]: the EC50 at human NAMPT enzyme was 80 nM; with HEK293A cells, 120 nM.

Turning to `CCN(CC)C(=O)c1noc2cc(NC(=O)NCc3ccncc3)ccc12` [Example 50, N,N-Diethyl-6-({[(pyridin-4-yl)methyl]carbamoyl}amino)-1,2-benzoxazole-3-carboxamide], the half-maximal effective concentration (EC50) at human NAMPT enzyme came to 240 nM; with HEK293A cells, 450 nM.

Regarding `O=C(NCc1ccncc1)Nc1ccc2c(c1)OC(c1ccccc1)C2` (stereo not shown) [Example 51, N-(2-Phenyl-2,3-dihydro-1-benzofuran-6-yl)-N′-[(pyridin-4-yl)methyl]urea], a half-maximal response at human NAMPT enzyme (EC50) required 120 nM.

With `COc1cccc(C2Cc3ccc(NC(=O)NCc4ccncc4)cc3O2)c1` (stereo not shown) [Example 52, N-[2-(3-Methoxyphenyl)-2,3-dihydro-1-benzofuran-6-yl]-N′-[(pyridin-4-yl)methyl]urea], the 50% effective concentration (EC50) came out at 80 nM on human NAMPT enzyme and 1240 nM in the experiment on HEK293A cells.

The compound `O=C(NCc1ccncc1)Nc1ccc2c(c1)OCC2c1ccccc1` (stereo not shown) [Example 54, N-(3-Phenyl-2,3-dihydro-1-benzofuran-6-yl)-N′-[(pyridin-4-yl)methyl]urea] gave an EC50 at human NAMPT enzyme of 270 nM.

For `CCN(CC)C(=O)c1coc2cc(NC(=O)NCc3ccncc3)ccc12` [Example 55, N,N-Diethyl-6-({[(pyridin-4-yl)methyl]carbamoyl}amino)-1-benzofuran-3-carboxamide], at human NAMPT enzyme, a half-maximal response (EC50) required 490 nM.

With `CCN(Cc1ccccc1)C(=O)c1noc2cc(NC(=O)NCc3ccncc3)ccc12` [Example 56, N-Benzyl-N-ethyl-6-({[(pyridin-4-yl)methyl]carbamoyl}amino)-1,2-benzoxazole-3-carboxamide], the 50% effective concentration (EC50) at human NAMPT enzyme was 30 nM.

Take `O=C(NCc1ccncc1)Nc1ccc2c(C(=O)N3CC4CCC(C3)O4)noc2c1` [Example 57, N-[3-(8-Oxa-3-azabicyclo[3.2.1]octane-3-carbonyl)-1,2-benzoxazol-6-yl]-N′-[(pyridin-4-yl)methyl]urea]: on human NAMPT enzyme, the concentration for a half-maximal effect (EC50) stood at 190 nM.

With `CNC1(c2ccccc2Cl)CCCCC1=O` (stereo not shown) [ketamine, Ketamine, reference compound], the “immobility time in forced swimming test” value with WKY rats is “significantly shortened the immobility time”.

These data come from patent publication US11918568B2, “Fused ring compound having urea structure” (DAIICHI SANKYO COMPANY, LIMITED, priority 2018, dated 2024).
